The source of these data is US9938261B2, “Heterocyclic compounds and methods of use thereof” (AMBIT BIOSCIENCES CORPORATION, priority 2011, dated 2018).

Bounds are passed on as bounds.

Assay [1] addresses kinase panel containing either 386 or 392 distinct kinases. The assay can be described thus: Kinase selectivity score S10 from competition binding panel. As to conditions: 10 μM, panel of 386 or 392 distinct kinases. The procedure, abridged: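 S10 is the number of kinases with percent-of-control under 10, divided by all distinct wild-type kinases tested, from a single 10 μM concentration. Binding measured by qPCR of kinase recovered from ligand-coated beads after 1 h equilibrium at room temperature; kinases were phage fusions or DNA-tagged HEK-293 products.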

Assay [2] deals with T1, KIT (Homo sapiens, UniProt P10721).
T1 construct: made in house
T1 sequence (P10721 26-976): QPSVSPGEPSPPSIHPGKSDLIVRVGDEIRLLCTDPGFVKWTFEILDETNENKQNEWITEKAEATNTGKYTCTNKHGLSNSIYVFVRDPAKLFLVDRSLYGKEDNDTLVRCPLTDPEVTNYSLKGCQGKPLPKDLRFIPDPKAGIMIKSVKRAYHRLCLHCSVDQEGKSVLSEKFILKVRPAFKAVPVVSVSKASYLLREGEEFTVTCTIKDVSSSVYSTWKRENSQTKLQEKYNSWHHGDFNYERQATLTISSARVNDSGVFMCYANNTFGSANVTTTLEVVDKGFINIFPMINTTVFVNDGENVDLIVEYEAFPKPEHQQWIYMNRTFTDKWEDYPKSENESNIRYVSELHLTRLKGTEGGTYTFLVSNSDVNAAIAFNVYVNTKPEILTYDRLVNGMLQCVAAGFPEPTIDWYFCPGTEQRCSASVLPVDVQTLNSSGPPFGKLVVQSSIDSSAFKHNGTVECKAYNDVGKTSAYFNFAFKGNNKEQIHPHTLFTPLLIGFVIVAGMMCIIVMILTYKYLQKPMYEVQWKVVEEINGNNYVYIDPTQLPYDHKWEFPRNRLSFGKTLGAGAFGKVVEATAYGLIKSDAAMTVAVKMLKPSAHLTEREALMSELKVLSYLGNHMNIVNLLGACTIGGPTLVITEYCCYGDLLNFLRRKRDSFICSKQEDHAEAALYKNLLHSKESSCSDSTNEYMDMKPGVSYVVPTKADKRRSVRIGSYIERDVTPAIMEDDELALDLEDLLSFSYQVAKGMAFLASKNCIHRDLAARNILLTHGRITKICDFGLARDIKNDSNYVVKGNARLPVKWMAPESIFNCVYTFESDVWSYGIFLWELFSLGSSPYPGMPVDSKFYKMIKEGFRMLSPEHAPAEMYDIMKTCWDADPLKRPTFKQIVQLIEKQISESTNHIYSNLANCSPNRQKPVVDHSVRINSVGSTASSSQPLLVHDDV
The assay can be described thus: Competition binding assay, KIT Kd. As to conditions: competition binding. The procedure, abridged: (§1)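 Compound displacement of kinase from bead-immobilized ligand is measured by qPCR after 1 h equilibration at room temperature. Kinases are T7 phage fusions or DNA-tagged HEK-293 products.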

The target of assay [3] is T2, PDGFRβ (Homo sapiens, UniProt P09619).
T2 construct: made in house
T2 sequence (P09619 33-1106): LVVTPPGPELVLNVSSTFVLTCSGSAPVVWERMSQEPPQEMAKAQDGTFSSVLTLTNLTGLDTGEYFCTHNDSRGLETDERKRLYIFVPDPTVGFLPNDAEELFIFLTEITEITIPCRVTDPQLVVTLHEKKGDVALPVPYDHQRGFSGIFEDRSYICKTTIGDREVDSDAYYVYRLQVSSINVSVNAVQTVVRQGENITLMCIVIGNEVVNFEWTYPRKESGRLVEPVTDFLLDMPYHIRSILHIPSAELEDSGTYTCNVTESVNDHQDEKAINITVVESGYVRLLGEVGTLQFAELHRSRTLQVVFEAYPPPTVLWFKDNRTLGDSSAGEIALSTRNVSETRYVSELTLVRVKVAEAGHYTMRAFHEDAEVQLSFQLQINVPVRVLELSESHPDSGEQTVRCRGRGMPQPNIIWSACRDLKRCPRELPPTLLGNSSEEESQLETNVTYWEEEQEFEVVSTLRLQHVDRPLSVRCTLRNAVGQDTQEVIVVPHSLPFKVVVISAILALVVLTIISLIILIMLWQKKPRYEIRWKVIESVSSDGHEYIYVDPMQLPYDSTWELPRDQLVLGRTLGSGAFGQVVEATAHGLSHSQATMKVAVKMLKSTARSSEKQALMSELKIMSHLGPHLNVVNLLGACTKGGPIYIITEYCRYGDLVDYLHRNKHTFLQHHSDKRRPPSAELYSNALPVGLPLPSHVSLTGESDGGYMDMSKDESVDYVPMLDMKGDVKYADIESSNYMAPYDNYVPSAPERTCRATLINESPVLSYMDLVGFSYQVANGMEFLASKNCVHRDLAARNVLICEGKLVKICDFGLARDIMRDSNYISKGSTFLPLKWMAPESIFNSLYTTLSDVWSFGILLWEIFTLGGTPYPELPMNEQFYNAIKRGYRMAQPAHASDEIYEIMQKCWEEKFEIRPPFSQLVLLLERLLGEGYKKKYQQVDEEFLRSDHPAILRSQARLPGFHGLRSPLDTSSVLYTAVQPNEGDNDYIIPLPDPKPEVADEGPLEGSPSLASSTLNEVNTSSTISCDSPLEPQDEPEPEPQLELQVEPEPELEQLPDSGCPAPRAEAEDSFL
Kind of assay: Competition binding assay, PDGFRβ Kd. As to conditions: competition binding. The procedure, abridged:
as §1

Assay [4] relates to M-NFS-60 cells. The assay can be described thus: M-NFS-60 cell proliferation assay (Alamar Blue). As to conditions: Mus musculus; M-NFS-60 cell proliferation; read-out: CSF1R M-NFS-60 CTB:IC50. The format is cell-based, mouse. The procedure, abridged:
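Alamar Blue reduction (3 h; 560/590 nm) measured viability after 72 h, 37 °C treatment with nine half-log compound concentrations at 0.5% DMSO. Cells: M-CSF-dependent (20 ng/mL) murine M-NFS-60 in RPMI plus 10% FBS. IC50s, averaged from duplicates, reflect half-maximal inhibition of proliferation relative to control.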
(In general: Alamar Blue is a resazurin reagent that responds to reducing activity.)

For assay [5], the target named is CSF1R (Homo sapiens, UniProt P07333). Kind of assay: Competition binding assay, CSF1R Kd. Further details: made in house. As to conditions: competition binding. The procedure, abridged:
as §1

By Kd is commonly meant the equilibrium constant for the complex coming apart. Higher therefore signals weaker binding. The term IC50 denotes the concentration needed to halve the response being measured.

Chain of CSF1R (P07333 20-972): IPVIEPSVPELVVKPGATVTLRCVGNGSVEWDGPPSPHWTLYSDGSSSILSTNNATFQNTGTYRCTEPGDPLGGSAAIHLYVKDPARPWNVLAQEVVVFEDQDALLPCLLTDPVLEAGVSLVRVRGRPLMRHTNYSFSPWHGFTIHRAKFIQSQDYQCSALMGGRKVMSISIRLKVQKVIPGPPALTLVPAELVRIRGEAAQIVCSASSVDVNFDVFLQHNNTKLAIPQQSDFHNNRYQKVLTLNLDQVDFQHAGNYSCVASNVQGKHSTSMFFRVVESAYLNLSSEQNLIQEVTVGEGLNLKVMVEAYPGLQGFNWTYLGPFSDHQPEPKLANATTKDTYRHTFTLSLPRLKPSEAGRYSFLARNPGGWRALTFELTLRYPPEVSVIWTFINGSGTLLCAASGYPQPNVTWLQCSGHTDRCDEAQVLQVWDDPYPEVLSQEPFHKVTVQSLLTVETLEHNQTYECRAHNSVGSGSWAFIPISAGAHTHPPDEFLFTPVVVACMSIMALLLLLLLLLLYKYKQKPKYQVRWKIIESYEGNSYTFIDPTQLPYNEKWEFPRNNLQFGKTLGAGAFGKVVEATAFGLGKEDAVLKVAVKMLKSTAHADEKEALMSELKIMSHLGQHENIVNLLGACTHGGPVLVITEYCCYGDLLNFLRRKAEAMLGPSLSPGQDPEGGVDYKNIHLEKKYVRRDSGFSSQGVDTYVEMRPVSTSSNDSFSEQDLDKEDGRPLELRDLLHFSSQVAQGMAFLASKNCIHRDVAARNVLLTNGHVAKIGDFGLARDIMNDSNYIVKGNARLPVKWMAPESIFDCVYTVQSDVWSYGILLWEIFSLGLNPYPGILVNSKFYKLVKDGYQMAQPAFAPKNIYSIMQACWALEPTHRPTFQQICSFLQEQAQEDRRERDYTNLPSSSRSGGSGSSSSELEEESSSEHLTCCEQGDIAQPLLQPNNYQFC

Turning to `N#Cc1ccc2c(c1)ncn2Cc1ccc2nc(N[C@@H]3CCCC[C@H]3O)sc2c1` [Example 108, 1-((2-(((1R,2R)-2-hydroxycyclohexyl)amino)benzo[d]thiazol-6-yl)methyl)-1H-benzo[d]imidazole-5-carbonitrile], in assay [1], the “Kinase specificity S(10)” value is on record as “A (A≤0.01)”. In addition, the values for the Kd in assay [2], in assay [3] and in assay [5] were 500 to 2000 nM, 500 to 2000 nM and 5 to 20 nM, respectively. In assay [4], the IC50 fell in the range of 50 to 400 nM.

`CC(C)(O)c1cnc2c(c1)ncn2Cc1ccc2nc(N[C@@H]3CCCC[C@H]3O)sc2c1` [Example 109, (1R,2R)-2-((6-((6-(2-hydroxypropan-2-yl)-3H-imidazo[4,5-b]pyridin-3-yl)methyl)benzo[d]thiazol-2-yl)amino)cyclohexanol]: the “Kinase specificity S(10)” value in assay [1] is given as “A (A≤0.01)”. Besides, the Kd in assay [2] fell in the range of 100 to 500 nM; in assay [3], 50 to 500 nM; in assay [5], 20 to 50 nM. Further, in assay [4], the IC50 fell in the range of 50 to 400 nM.

As for `CC(=O)c1ccc2c(c1)ncn2Cc1ccc2nc(N[C@@H]3CCCC[C@H]3O)sc2c1` [Example 110, 1-(1-((2-(((1R,2R)-2-hydroxycyclohexyl)amino)benzo[d]thiazol-6-yl)methyl)-1H-benzo[d]imidazol-5-yl)ethanone], the “Kinase specificity S(10)” value in assay [1] is on record as “A (A≤0.01)”. Moreover, the Kd in assay [2] was 100 to 500 nM; in assay [3], 50 to 500 nM; in assay [5], at most 5 nM. The IC50 in assay [4] was in the range of 50 to 400 nM.

With `N#Cc1ccc2ncn(Cc3ccc4nc(N[C@@H]5CCCC[C@H]5O)sc4c3)c2c1` [Example 111, 1-((2-(((1R,2R)-2-hydroxycyclohexyl)amino)benzo[d]thiazol-6-yl)methyl)-1H-benzo[d]imidazole-6-carbonitrile], in assay [1], the “Kinase specificity S(10)” value is given as “A (A≤0.01)”. In addition, the Kd in assay [2] is 500 to 2000 nM; in assay [3], 500 to 2000 nM; in assay [5], 5 to 20 nM. For the same compound, in assay [4], the IC50 is 50 to 400 nM.

Turning to `CS(=O)(=O)c1ccc2c(c1)ncn2Cc1ccc2nc(N[C@@H]3CCCC[C@H]3O)sc2c1` [Example 112, (1R,2R)-2-((6-((5-(methylsulfonyl)-1H-benzo[d]imidazol-1-yl)methyl)benzo[d]thiazol-2-yl)amino)cyclohexanol], the “Kinase specificity S(10)” value in assay [1] is “A (A≤0.01)”. The equilibrium dissociation constant (Kd) in assay [2] fell in the range of 500 to 2000 nM; in assay [3], 500 to 2000 nM; in assay [5] it was 20 to 50 nM. Also, in assay [4], the IC50 was over 1500 nM.

Consider `CS(=O)(=O)c1ccc2ncn(Cc3ccc4nc(N[C@@H]5CCCC[C@H]5O)sc4c3)c2c1` [Example 113, (1R,2R)-2-((6-((6-(methylsulfonyl)-1H-benzo[d]imidazol-1-yl)methyl)benzo[d]thiazol-2-yl)amino)cyclohexanol], for which the “Kinase specificity S(10)” value in assay [1] is on record as “A (A≤0.01)”. Moreover, the Kd is 500 to 2000 nM in assay [2], over 2000 nM in assay [3] and 20 to 50 nM in assay [5]. In assay [4], the concentration for half-maximal inhibition (IC50) is over 1500 nM.

As to `O[C@@H]1CCCC[C@H]1Nc1nc2ncc(Cn3cnc4cccnc43)cc2s1` [Example 114, (1R,2R)-2-((6-((3H-imidazo[4,5-b]pyridine-3-yl)methyl)thiazolo[4,5-b]pyridine-2-yl)amino)cyclohexanol], the “Kinase specificity S(10)” value in assay [1] is “A (A≤0.01)”. The results for the Kd in assay [2], in assay [3] and in assay [5] were 100 to 500 nM, 500 to 2000 nM and over 50 nM, respectively. Further, in assay [4], the IC50 was over 1500 nM.

Regarding `CC(O)c1cnc2c(c1)ncn2Cc1ccc2nc(N[C@@H]3CCCC[C@H]3O)sc2c1` (stereo partly drawn) [Example 115, (1R,2R)-2-((6-((6-((R,S)-1-hydroxyethyl)-3H-imidazo[4,5-b]pyridin-3-yl)methyl)benzo[d]thiazol-2-yl)amino)cyclohexanol], the “Kinase specificity S(10)” value in assay [1] is listed as “A (A≤0.01)”. The results for the Kd in assay [2], in assay [3] and in assay [5] were 500 to 2000 nM, 50 to 500 nM and over 50 nM, respectively. For the same compound, the IC50 in assay [4] is 50 to 400 nM.

Consider `N#Cc1ccn2c(Cc3ccc4nc(N[C@@H]5CCCC[C@H]5O)sc4c3)cnc2c1` [Example 117, 3-((2-(((1R,2R)-2-hydroxycyclohexyl)amino)benzo[d]thiazol-6-yl)methyl)imidazo[1,2-a]pyridine-7-carbonitrile], for which the “Kinase specificity S(10)” value in assay [1] is “A (A≤0.01)”. Moreover, the Kd in assay [2] is over 2000 nM; in assay [3] it was 50 to 500 nM; in assay [5], 5 to 20 nM. Moreover, the IC50 in assay [4] fell in the range of 400 to 1500 nM.

For `O[C@@H]1CCCC[C@H]1Nc1nc2ccc(Cn3cnc4cncnc43)cc2o1` [Example 118, (1R,2R)-2-((6-((9H-purin-9-yl)methyl)benzo[d]oxazol-2-yl)amino)cyclohexanol], the “Kinase specificity S(10)” value in assay [1] is “A (A≤0.01)”. For the same compound, the Kd fell in the range of 100 to 500 nM in assay [2] and 20 to 50 nM in assay [5]. Further, in assay [4], the 50% inhibitory concentration (IC50) fell in the range of 400 to 1500 nM.

As for `Cc1cc2ncn(Cc3ccc4nc(N[C@@H]5CCCC[C@H]5O)sc4c3)c2cc1C` [Example 119, (1R,2R)-2-((6-((5,6-dimethyl-1H-benzo[d]imidazol-1-yl)methyl)benzo[d]thiazol-2-yl)amino)cyclohexanol], the “Kinase specificity S(10)” value in assay [1] is given as “A (A≤0.01)”. In addition, the results for the Kd in assay [2], in assay [3] and in assay [5] were at most 100 nM, at most 50 nM and 5 to 20 nM, respectively. The IC50 in assay [4] was 50 to 400 nM.

On to `CC(=O)c1ccc2ncn(Cc3ccc4nc(N[C@@H]5CCCC[C@H]5O)sc4c3)c2c1` [Example 120, 1-(1-((2-(((1R,2R)-2-hydroxycyclohexyl)amino)benzo[d]thiazol-6-yl)methyl)-1H-benzo[d]imidazol-6-yl)ethanone], for which the “Kinase specificity S(10)” value in assay [1] is “B (0.01<B≤0.02)”. Further, the Kd in assay [2] was in the range of 100 to 500 nM; in assay [3] it was 50 to 500 nM; in assay [5], 5 to 20 nM. For the same compound, the IC50 in assay [4] fell in the range of 50 to 400 nM.

In the case of `C#Cc1ccc2c(c1)ncn2Cc1ccc2nc(N[C@@H]3CCCC[C@H]3O)sc2c1` [Example 121, (1R,2R)-2-((6-((5-ethynyl-1H-benzo[d]imidazol-1-yl)methyl)benzo[d]thiazol-2-yl)amino)cyclohexanol], the “Kinase specificity S(10)” value in assay [1] is “A (A≤0.01)”. Moreover, the Kd in assay [2] fell in the range of 100 to 500 nM; in assay [3], 50 to 500 nM; in assay [5] it was 5 to 20 nM. Also, the IC50 in assay [4] is 50 to 400 nM.

For `C#Cc1ccc2ncn(Cc3ccc4nc(N[C@@H]5CCCC[C@H]5O)sc4c3)c2c1` [Example 122, (1R,2R)-2-((6-((6-ethynyl-1H-benzo[d]imidazol-1-yl)methyl)benzo[d]thiazol-2-yl)amino)cyclohexanol], the “Kinase specificity S(10)” value in assay [1] is on record as “A (A≤0.01)”. The Kd in assay [2] fell in the range of 100 to 500 nM; in assay [3], 50 to 500 nM; in assay [5], 5 to 20 nM. The IC50 in assay [4] fell in the range of 50 to 400 nM.

Regarding `COc1nc2c(cc1Br)ncn2Cc1ccc2nc(N[C@@H]3CCCC[C@H]3O)sc2c1` [Example 123, (1R,2R)-2-((6-((6-bromo-5-methoxy-3H-imidazo[4,5-b]pyridin-3-yl)methyl)benzo[d]thiazol-2-yl)amino)cyclohexanol], the “Kinase specificity S(10)” value in assay [1] was “B (0.01<B≤0.02)”. For the same compound, the Kd is at most 100 nM in assay [2], at most 50 nM in assay [3] and 5 to 20 nM in assay [5]. The IC50 in assay [4] was in the range of 50 to 400 nM.

For the compound `N#Cc1cnc2c(c1)ncn2Cc1ccc2nc(N[C@@H]3CCCC[C@H]3O)oc2c1` [Example 124, 3-((2-(((1R,2R)-2-hydroxycyclohexyl)amino)benzo[d]oxazol-6-yl)methyl)-3H-imidazo[4,5-b]pyridine-6-carbonitrile], the “Kinase specificity S(10)” value in assay [1] is reported as “B (0.01<B≤0.02)”. Besides, the values for the Kd in assay [2], in assay [3] and in assay [5] were at most 100 nM, at most 50 nM and 5 to 20 nM, respectively. Also, the IC50 in assay [4] lay in the range of 50 to 400 nM.

`O[C@@H]1CCCC[C@H]1Nc1nc2ccc(Cc3cnc4cnccn34)cc2s1` [Example 125, (1R,2R)-2-((6-(imidazo[1,2-a]pyrazin-3-ylmethyl)benzo[d]thiazol-2-yl)amino)cyclohexanol]: the “Kinase specificity S(10)” value in assay [1] is reported as “B (0.01<B≤0.02)”. Also, the Kd in assay [2] lay in the range of 500 to 2000 nM; in assay [3], 50 to 500 nM; in assay [5], 5 to 20 nM. Further, the IC50 in assay [4] is 400 to 1500 nM.

Consider `COc1nc2c(cc1C#N)ncn2Cc1ccc2nc(N[C@@H]3CCCC[C@H]3O)sc2c1` [Example 126, 3-((2-(((1R,2R)-2-hydroxycyclohexyl)amino)benzo[d]thiazol-6-yl)methyl)-5-methoxy-3H-imidazo[4,5-b]pyridine-6-carbonitrile], for which the “Kinase specificity S(10)” value in assay [1] was “A (A≤0.01)”. Besides, the Kd was in the range of 100 to 500 nM in assay [2], 50 to 500 nM in assay [3] and 5 to 20 nM in assay [5]. For the same compound, in assay [4], the IC50 lay in the range of 50 to 400 nM.

Turning to `Cc1ccc2c(c1)ncn2Cc1ccc2nc(N[C@@H]3CCCC[C@H]3O)sc2c1` [Example 127, (1R,2R)-2-((6-((5-methyl-1H-benzo[d]imidazol-1-yl)methyl)benzo[d]thiazol-2-yl)amino)cyclohexanol], the “Kinase specificity S(10)” value in assay [1] is listed as “A (A≤0.01)”. For the same compound, the values for the Kd in assay [2], in assay [3] and in assay [5] were 100 to 500 nM, at most 50 nM and 5 to 20 nM, respectively. Also, the IC50 in assay [4] was 50 to 400 nM.
